US12257224B2, “Methods of administration for highly water-soluble salts of a short acting phenylalkylamine calcium channel blocker” (Milestone Pharmaceuticals Inc., priority 2021, dated 2025)

Assays:
[1] = test system: subjects in sinus rhythm; assay: Example 4: one vs two 70 mg doses, PR interval and safety; format: in vivo, human
Experimental: A population of 46 subjects in sinus rhythm received one 70 mg dose of compound I according to the protocol of Example 2, and after several months the dose regimen of 70 mg followed by a repeat same dose of 70 mg 10 minutes later as in the protocol of Example 3.
Two dose administration followed the same protocol as single dose administration for the initial dose, however 10 minutes after the first 70 mg dose of compound I, a second 70 mg dose of compound I was administered. For the second dose, the patients were allowed to blow their nose to remove any excess fluid build-up immediately prior to self-administration of the second 70 mg dose.

[2] = test system: induced PSVT; assay: Phase 2 study: termination of induced PSVT; format: in vivo, human; settings: for mean reduction in systolic blood pressure (SBP) versus baseline: between 4 and 10 minutes after administration
Experimental: In a Phase 2 study, four doses (35, 70, 105, and 140 mg) were tested.

[3] = Experimental: Randomized, double-blind, placebo-controlled, ethnobridging PK/PD study, 35, 70 and 105 mg doses were evaluated.
[4] = test system: PSVT; assay: Example 2: Phase 3 study of self-administered 70 mg dose for PSVT in an at-home setting; format: in vivo, human
Experimental: A multi-center, randomized, double-blind, placebo-controlled study to evaluate the efficacy and safety of a 70 mg self-administered dose of compound I in an at-home setting was conducted. […] PSVT episodes were documented by an ambulatory Cardiac Monitoring System (CMS) placed on the chest by the patient or caregiver when symptoms began and were recorded at least 5 hours of continuous electrocardiogram (ECG).
The primary efficacy endpoint was defined as an adjudicated termination of a positively adjudicated episode of PSVT and conversion to sinus rhythm for at least 30 seconds. The primary efficacy endpoint was evaluated using the time to conversion of an episode of PSVT to sinus rhythm after study drug administration as the primary efficacy variable. The study included a screening visit, a test dose randomization visit, follow-up visits, a treatment period, and a final study visit. Before randomization, all patients received a 70 mg test dose of compound I to evaluate tolerability. The test dose administration took place at the study site under medical supervision while the patient was in sinus rhythm (SR). Patients who passed the test dose were randomized in a 2:1 ratio to 70 mg compound I or placebo. During the treatment period, all randomized patients performed a sequence of steps upon self-identifying symptoms of an episode of PSVT, including contacting a telephone coach for assistance on study procedures, applying a CMS on their chest, performing a vagal maneuver (VM), and study drug self-administration.
For administration, the patients placed the applicator of the system into their nose. The subject's held the nasal delivery system between the second and third fingers, with the thumb placed on the actuator. […] The subjects then apply pressure to the actuator, which forces the liquid solution containing the dissolved acetate salt of compound I through the device, causing the solution to be released from the tip of the applicator as a spray. The solution was administered to the patients as two single pump spray dosages in order to deliver 70 mg of compound I to the nasal epithelium.
The presence of an episode of PSVT and termination were evaluated by an independent Adjudication Committee. The Adjudication Committee's evaluations were done using the complete CMS ECG recorded during the patient's PSVT episode.

[5] = one and two 70 mg dose regimens

For `COC(=O)c1cccc(CCN(C)CCCC(C#N)(c2ccc(OC)c(OC)c2)C(C)C)c1` (stereo not drawn) [compound I, methyl 3-(2-((4-cyano-4-(3,4-dimethoxyphenyl)-5-methylhexyl)(methyl)amino)ethyl)benzoate], the AV block [1, 5] was “No new AV block was observed”, the “lowest systolic blood pressure seen” value [1, 5] was ≥ 99 mmHg and the severe adverse reactions [1, 5] was “No severe adverse reactions were seen”. The “increase in PR interval” value ([1]; repeat 70 mg, second dose 10 minutes after the initial dose) was 21 ms, the “maximum percentage increase in PR interval” value ([1]; repeat dose of 70 mg) was 14% and the “duration of PR increase” value ([1]; repeat dose of 70 mg vs single dose of 70 mg) was “more prolonged”. The “increase in PR interval” value ([1]; single 70 mg administration) was 15 ms, the “maximum percentage increase in PR interval” value ([1]; single 70 mg administration) was 9% and the “heart rate and systolic blood pressure” value ([1]; single 70 mg dose and two 70 mg doses separated by 10 minutes) was “remain in normal ranges”. The safety and tolerability ([1]; two dose regimen of 70 mg compared to single dose regimen) was “safe and was well tolerated”, the overall success rate ([2]; 35 mg, at 15 minutes) was 65% and the “treatment effect compared to placebo” value ([2]; 35 mg, at 15 minutes) was 30%. For the same molecule, the “mean reduction in systolic blood pressure (SBP) versus baseline” value ([2]; 105 mg) was 11.4%, the “mean reduction in systolic blood pressure (SBP) versus baseline” value ([2]; 140 mg) was 15.6% and the “termination of induced PSVT within 15 minutes of dosing” value ([2]; 70, 105 and 140 mg vs placebo) was “statistically significantly superior compared with placebo”. The “time to conversion of PSVT to sinus rhythm (SR)” value ([2]; 70, 105 and 140 mg vs placebo) was “shorter”, the tolerability ([2]; NS 70 mg) was “well tolerated” and the “mean SBP” value ([2]; doses of 35 and 70 mg) was “did not drop”. The “time at which pharmacodynamic effect began to decrease” value ([3]; 35, 70 and 105 mg doses) was 15 min, the “time to increase of PR interval and HR” value ([3]; 35, 70 and 105 mg doses) was ≤ 10 min and the “duration of pharmacodynamic effect” value ([3]; duration of PR prolongation exceeding 10% from baseline) was 30 to 45 min. The “exposure, dose proportionality” value ([3]; human, in vivo) was “increased in a dose proportional manner between 35 and 70 mg but not between the 70 and 105 mg doses”, the “incidences of severe adverse events or adverse events of interest vs placebo” value ([4]; 70 mg) was “no significant differences” and the “median time to conversion” value ([4]; 70 mg) was 25 min. The “most common adverse events” value ([4]; 70 mg) was “local to the nose, including nasal irritation and congestion”, the “patients converted to SR within 30 minutes after study drug administration” value ([4]; 70 mg) was 54% and the “patient reported treatment satisfaction (TSQM-9)” value ([4]; 70 mg vs placebo, secondary endpoint) was “nominal statistically significant improvements in favor of compound I over placebo”. The “hazard ratio HR (95% CI), time to conversion of PSVT to SR vs placebo” value ([4]; 70 mg, 5-hour observation period) was 1.086 (0.726, 1.623), the safety and tolerability ([4]; 70 mg, over 5 hours following treatment, more than 100 patients in PSVT) was “safe and well tolerated” and the “absolute difference in conversion rate vs placebo by 30 minutes” value ([4]; 70 mg, post hoc analysis) was ~19%.
